# Test results reported in PubChem BioAssay AID330 (DTP/NCI, 2004).
# Several values for one entry are separate records, joined by “and”; a condition that tells them apart may be missing. Equal values may be shown once. Inconclusive results and toxic doses are left out. Peptide text beside a SMILES is read from it. * marks the point of attachment. Cbz = O=C(OCc1ccccc1)*
# Test system: P388 leukemia ip, CD2F1 mice, survival T/C
# Test: NCI In Vivo Anticancer Drug Screen. Data for tumor model P388 Leukemia (intraperitoneal) in CD2F1 (CDF1) mice
# Details: endpoint: median survival time, higher = longer survival
# In short: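 Mice carrying the transplanted tumor received test compound or vehicle. Survival was recorded in each group, and the value is the treated-group measurement divided by that of the vehicle-treated control group.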
# [1] = dose: 60.0 mg/kg/injection, schedule: Q01DX005 (ip), vehicle: saline with Tween-80
# [2] = dose: 120.0 mg/kg/injection, schedule: Q01DX005 (ip), vehicle: saline with Tween-80
# [3] = dose: 240.0 mg/kg/injection, schedule: Q01DX005 (ip), vehicle: saline with Tween-80
# [4] = dose: 12.5 mg/kg/injection, schedule: Q01DX009 (ip), vehicle: Klucel (hydroxypropylcellulose) (HPC)
# [5] = dose: 25.0 mg/kg/injection, schedule: Q01DX009 (ip), vehicle: Klucel (hydroxypropylcellulose) (HPC)
# [6] = dose: 50.0 mg/kg/injection, schedule: Q01DX009 (ip), vehicle: Klucel (hydroxypropylcellulose) (HPC)
# [7] = dose: 100.0 mg/kg/injection, schedule: Q04DX003 (ip), vehicle: saline
# [8] = dose: 200.0 mg/kg/injection, schedule: Q04DX003 (ip), vehicle: saline
# [9] = dose: 50.0 mg/kg/injection, schedule: Q01DX005 (ip), vehicle: saline with Tween-80
# [10] = dose: 100.0 mg/kg/injection, schedule: Q01DX005 (ip), vehicle: saline with Tween-80
# [11] = dose: 200.0 mg/kg/injection, schedule: Q01DX005 (ip), vehicle: saline with Tween-80
# [12] = dose: 100.0 mg/kg/injection, schedule: Q01DX001 (ip), vehicle: saline with Tween-80
# [13] = dose: 200.0 mg/kg/injection, schedule: Q01DX001 (ip), vehicle: saline with Tween-80
# [14] = dose: 400.0 mg/kg/injection, schedule: Q01DX001 (ip), vehicle: saline with Tween-80
# [15] = dose: 25.0 mg/kg/injection, schedule: Q04DX002 (ip), vehicle: saline with Tween-80
# [16] = dose: 50.0 mg/kg/injection, schedule: Q04DX002 (ip), vehicle: saline with Tween-80
# [17] = dose: 100.0 mg/kg/injection, schedule: Q04DX002 (ip), vehicle: saline with Tween-80
# [18] = dose: 60.0 mg/kg/injection, schedule: Q01DX005 (ip), vehicle: saline
# [19] = dose: 120.0 mg/kg/injection, schedule: Q01DX005 (ip), vehicle: saline
# [20] = dose: 240.0 mg/kg/injection, schedule: Q01DX005 (ip), vehicle: saline
# [21] = dose: 100.0 mg/kg/injection, schedule: Q01DX009 (ip), vehicle: Klucel (hydroxypropylcellulose) (HPC)
smiles,measurement,setting,value
CCOC(=O)c1ccc(N=Cc2cccc([N+](=O)[O-])c2)cc1,T/C,[1],91 % of control
same,T/C,[2],89 % of control
same,T/C,[3],90 % of control
CC(C)NC(=O)N(CCCCBr)N=O,T/C,"dose: 6.25 mg/kg/injection, schedule: Q01DX009 (ip), vehicle: Klucel (hydroxypropylcellulose) (HPC)",92 % of control
same,T/C,[4],99 % of control
same,T/C,[5],101 % of control
same,T/C,[6],117 % of control
COc1ccc(C2CC(=O)N(c3nc(C)cc(C)n3)C(=O)C2)cc1,T/C,[7],96 % of control
same,T/C,[8],102 % of control
same,T/C,"dose: 400.0 mg/kg/injection, schedule: Q04DX003 (ip), vehicle: saline",100 % of control
Clc1nn2cnnc2c2ncccc12,T/C,[4],91 % of control
same,T/C,[5],96 % of control
same,T/C,[6],92 % of control and 97 % of control
O=C(NCCCCCCCCNC(=O)C12CC3CC(CC(C3)C1)C2)C12CC3CC(CC(C3)C1)C2,T/C,[9],86 % of control
same,T/C,[10],86 % of control
same,T/C,[11],96 % of control
CCCNC(=O)OCc1c(COC(=O)NCCC)c(-c2ccc(Cl)c(Cl)c2)n2c1CCC2,T/C,"dose: 12.5 mg/kg/injection, schedule: Q01DX009 (ip), vehicle: distilled water + Tween-80",120 % of control
same,T/C,"dose: 20.0 mg/kg/injection, schedule: Q01DX009 (ip), vehicle: distilled water + Tween-80",154 % of control
same,T/C,"dose: 40.0 mg/kg/injection, schedule: Q01DX009 (ip), vehicle: distilled water + Tween-80",154 % of control and 172 % of control
same,T/C,"dose: 50.0 mg/kg/injection, schedule: Q01DX009 (ip), vehicle: distilled water + Tween-80",166 % of control
same,T/C,"dose: 80.0 mg/kg/injection, schedule: Q01DX009 (ip), vehicle: distilled water + Tween-80",102 % of control and 91 % of control
same,T/C,"dose: 100.0 mg/kg/injection, schedule: Q01DX009 (ip), vehicle: distilled water + Tween-80",95 % of control
Cc1ccc(/C=N/N)s1,T/C,"dose: 50.0 mg/kg/injection, schedule: Q04DX003 (ip), vehicle: other",90 % of control
same,T/C,"dose: 100.0 mg/kg/injection, schedule: Q04DX003 (ip), vehicle: other",100 % of control
same,T/C,"dose: 200.0 mg/kg/injection, schedule: Q04DX003 (ip), vehicle: other",100 % of control
CC(C(O)CO)n1cnc2c(NCC(O)CO)ncnc21 (configuration not stated),T/C,[12],101 % of control
same,T/C,[13],107 % of control
same,T/C,[14],100 % of control
[O-][n+]1onc2ccccc21,T/C,[15],103 % of control
same,T/C,[16],109 % of control
same,T/C,[17],90 % of control
Nc1nc(SCc2ccccn2)c2[nH]cnc2n1,T/C,"dose: 66.0 mg/kg/injection, schedule: Q04DX003 (ip), vehicle: Klucel (hydroxypropylcellulose) (HPC)",122 % of control
C=CCN(CC=C)c1cc(NN)nnc1Cl,T/C,"dose: 25.0 mg/kg/injection, schedule: Q01DX009 (ip), vehicle: other",102 % of control
same,T/C,"dose: 50.0 mg/kg/injection, schedule: Q01DX009 (ip), vehicle: other",105 % of control
COc1ccc2c(c1)CC(C)[N+]([O-])=C2C(F)(F)F (configuration not stated),T/C,[9],99 % of control
same,T/C,[10],102 % of control
same,T/C,[11],104 % of control
Cn1c2ccccc2c(=O)c2cc(NC(=O)CCCCCCCC(=O)Nc3ccc4c(c3)c(=O)c3ccccc3n4C)ccc21,T/C,[9],92 % of control
same,T/C,[10],97 % of control
same,T/C,[11],101 % of control
N#Cc1ccc(OC(=O)Nc2ccc(F)cc2)cc1,T/C,[1],106 % of control
same,T/C,[2],104 % of control
C[N-]N(C)C(=O)[S-].C[N-]N(C)C(=O)[S-].C[N-]N(C)C(=O)[S-].[Co],T/C,"dose: 25.0 mg/kg/injection, schedule: Q04DX003 (ip), vehicle: saline with Tween-80",103 % of control
same,T/C,"dose: 50.0 mg/kg/injection, schedule: Q04DX003 (ip), vehicle: saline with Tween-80",103 % of control
CC(=O)Oc1cc(OC(C)=O)c2c(c1)C(=O)c1cc(C)cc(OC(C)=O)c1C2=O,T/C,[17],90 % of control and 96 % of control
same,T/C,"dose: 200.0 mg/kg/injection, schedule: Q04DX002 (ip), vehicle: saline with Tween-80",90 % of control
same,T/C,"dose: 400.0 mg/kg/injection, schedule: Q04DX002 (ip), vehicle: saline with Tween-80",90 % of control
O=c1c(N2CCOCC2)c(N2CCOCC2)c1=O,T/C,[12],100 % of control
same,T/C,[13],95 % of control
same,T/C,[14],90 % of control
CSc1nc(N)c(C#N)c(SC)c1C#N,T/C,"dose: 50.0 mg/kg/injection, schedule: Q04DX003 (ip), vehicle: saline",98 % of control
same,T/C,[7],112 % of control
same,T/C,[8],101 % of control
N#CCNC=O,T/C,[18],98 % of control
same,T/C,[19],103 % of control
same,T/C,[20],100 % of control
O=C(O)CCc1cccnc1,T/C,"dose: 266.0 mg/kg/injection, schedule: Q01DX009 (ip), vehicle: saline with Tween-80",105 % of control
same,T/C,"dose: 400.0 mg/kg/injection, schedule: Q01DX009 (ip), vehicle: saline with Tween-80",115 % of control
Nc1nc(-c2ccccc2)cc(-c2cc(-c3ccccc3)nc(N)n2)n1,T/C,[18],100 % of control
same,T/C,[19],102 % of control
same,T/C,[20],100 % of control
Cn1cccc1/C=N/N1CC(=O)N(c2cccc(Cl)c2)CC1=O,T/C,[9],100 % of control
same,T/C,[10],97 % of control
Cc1ccc(S(=O)c2cc(C)cc(C(C)(C)C)c2O)cc1 (configuration not stated),T/C,"dose: 50.0 mg/kg/injection, schedule: Q01DX009 (ip), vehicle: saline with Tween-80",103 % of control
same,T/C,"dose: 100.0 mg/kg/injection, schedule: Q01DX009 (ip), vehicle: saline with Tween-80",105 % of control
same,T/C,"dose: 200.0 mg/kg/injection, schedule: Q01DX009 (ip), vehicle: saline with Tween-80",96 % of control
Cc1cc(N=Nc2ccc(-c3ccc(N=Nc4ccc(O)c(C(=O)O)c4)cc3)cc2)c(N)c(N=Nc2cc(C(=O)O)ccc2Cl)c1N,T/C,"dose: 50.0 mg/kg/injection, schedule: Q01DX005 (ip), vehicle: saline",104 % of control
same,T/C,"dose: 100.0 mg/kg/injection, schedule: Q01DX005 (ip), vehicle: saline",104 % of control
same,T/C,"dose: 200.0 mg/kg/injection, schedule: Q01DX005 (ip), vehicle: saline",90 % of control
O=C(NC(Cc1ccc(O)cc1)C(=O)NC(CO)C(=O)O)OCc1ccccc1 (stereo not drawn) (Cbz-Tyr-Ser-OH; configuration not given here),T/C,[9],101 % of control
same,T/C,[10],101 % of control
same,T/C,[11],106 % of control
COc1cc([C@@H]2c3cc4c(cc3C[C@@H]3COC(=O)[C@H]32)OCO4)cc(OC)c1OC,T/C,"dose: 12.5 mg/kg/injection, schedule: Q04DX002 (ip), vehicle: saline with Tween-80",86 % of control
same,T/C,[15],96 % of control
same,T/C,[16],106 % of control
COC1C(Cl)CC(/C(=C\C2CCCCC2)C(=O)O)CC1Cl (configuration not stated),T/C,[9],100 % of control
same,T/C,[10],103 % of control
same,T/C,[11],101 % of control
Nc1cccc(SC(CC(=O)c2ccc(-c3ccccc3)cc2)c2ccco2)c1 (configuration not stated),T/C,[6],97 % of control
same,T/C,[21],101 % of control
CCOC(=O)n1oc2c(Br)cc(Br)cc2c1=O,T/C,"dose: 50.0 mg/kg/injection, schedule: Q04DX002 (ip), vehicle: Klucel (hydroxypropylcellulose) (HPC)",105 % of control
same,T/C,"dose: 100.0 mg/kg/injection, schedule: Q04DX002 (ip), vehicle: Klucel (hydroxypropylcellulose) (HPC)",99 % of control
same,T/C,"dose: 200.0 mg/kg/injection, schedule: Q04DX002 (ip), vehicle: Klucel (hydroxypropylcellulose) (HPC)",101 % of control
Cn1nc2c(c(Cl)c1=O)Nc1ccccc1O2,T/C,[1],108 % of control
same,T/C,[2],104 % of control
same,T/C,[3],96 % of control
CC(C)=CCC/C(C)=C/CC1=CC(=O)C=CC1=O,T/C,[5],101 % of control
same,T/C,[6],97 % of control
same,T/C,[21],87 % of control
BrCCc1ccc2ccccc2c1Br,T/C,"dose: 50.0 mg/kg/injection, schedule: Q01DX005 (ip), vehicle: distilled water + Tween-80 + alcohol",111 % of control
same,T/C,"dose: 100.0 mg/kg/injection, schedule: Q01DX005 (ip), vehicle: distilled water + Tween-80 + alcohol",109 % of control
same,T/C,"dose: 200.0 mg/kg/injection, schedule: Q01DX005 (ip), vehicle: distilled water + Tween-80 + alcohol",105 % of control
